Data published in PMC12457078, “Inhibition of soluble epoxide hydrolase in endotoxin induced pig lung injury” (Frontiers in Pharmacology, 2025).
Values joined by “and” are separate entries in the source; they are usually repeats but may differ in a detail not shown here. Identical values can stand only once. “Also recorded” adds a separate entry of the source. Like-named read-outs stand apart in the source and are kept apart here.

Assays:
[1] = system: lung injury; test: histological evaluation of lung biopsies (four graded scale 0-3); format: in vivo, pig
From the text: After euthanasia, the chest was opened and two approximately 2 × 1 × 1 cm pieces of lung tissue was cut from the left lung 3 cm from the hilus. One piece was immediately put in formaldehyde solution for later routine preparation for histological evaluation in hematoxylin and eosin staining. A pathologist, blinded for treatment group, evaluated the severity of lung injury in specimens on a four graded scale: 0 = no lung injury, 1 = mild lung injury, 2 = moderate lung injury and 3 = severe lung injury.

[2] = AEPU blood concentrations in LPS-treated pigs; format: in vivo, pig; details: for AEPU conc, In 10uL blood / AEPU conc, In analyte: listed as AEPU
Procedure: One animal served as a pharmacokinetic pilot, with arterial and venous catheters placed in a cut-down in the neck. The remaining 21 animals were used for the randomized study (Figure 1). After intubation and start of mechanical ventilation, a second auricular vein cannula was placed and infusion of either AEPU or placebo according to randomization was started. After 2 h of infusion of AEPU or placebo, an infusion of LPS was started. A bolus of 0.1 mg/kg was administered during 30 min after which the infusion rate was adjusted to 0.01 mg/kg/h. During the time between start of AEPU or placebo and LPS infusion, neck dissection was performed, exposing the v jugularis externa and carotid artery. A pulmonary artery introducer and an arterial cannula were placed in vein and artery respectively, and a pulmonary artery catheter introduced through the introducer and the tip placed in the correct position in the pulmonary artery placement guided by continuous invasive pressure monitoring or, when difficult, assisted by fluoroscopy. All surgical procedures were performed under sterile conditions.
AEPU was synthesized according to Kim et al. ([Kim et al., 2007]), delivered in 60 mg vials and dissolved in 30 mL pure ethanol as a co-solvent, of which either 20 mL was added to 980 mL of sodium chloride 9 mg/mL or 8 mL–392 mL sodium chloride, creating a solution of 0.04 mg/mL AEPU and 2% ethanol. The placebo infusion was prepared by adding either 20 mL of pure ethanol to 980 mL of sodium chloride 9 mg/mL or 8 mL of pure ethanol to 392 mL sodium chloride, creating a 2% ethanol solution. Each animal received an infusion of either 0.1 mg/kg/h AEPU or the corresponding volume of placebo solution.
All animals were monitored with pulse oximetry, heart rate, ECG, systemic arterial blood pressure (ABP), pulmonary arterial pressure (PAP), central venous pressure (CVP) temperature, tidal volumes, respiratory rate and end tidal carbon dioxide. At baseline, and at 3 h, 6 h and at the end of the experiment, pulmonary capillary wedge pressure (PCWP) was measured together with arterial and venous blood gas analyses, as well as cardiac output calculations. Routine chemistry, including creatinine, bilirubin, glucose, electrolytes were collected at baseline and at the end of the experiment (Vetscan VS2®, Abaxis, Griesheim, Germany). Blood samples for measurement of AEPU plasma concentrations, as well as oxylipins (i.e., EpETrEs and their DiHETrE corresponding diols as well as related compounds with other polyunsaturated fatty acid precursors), were collected at baseline, 6 h and at the end of the experiment. Oxylipin analysis was performed according to a previously published protocol ([Gouveia-Figueira and Nording, 2015]).

Question: Which lungskada ([1]; histology score, per case, listed as sEH-i 950) does the source give for `CCOCCOCCOCCCCCNC(=O)NC12CC3CC(CC(C3)C1)C2` [Compound 950] here?
Answer: The lungskada was 3 and 2.

Question: What about the Lung injury ([1]; histology, grade in words, per case, listed as sEH-i 950) of the same compound?
Answer: The Lung injury was “Severe; also recorded: Moderate”.

Question: What about the Histological injury score ([1]; scale 0-3, AEPU group) of the same compound?
Answer: Its Histological injury score is 2.7 (2–3).

Question: And the “950 in blood spots” value ([2]; 6 h, individual pigs)?
Answer: The value was 61 nM and 53 nM and 118 nM and 49 nM and 77 nM and 123 nM and 162 nM and 99 nM and 66 nM.

Question: What about the “950 in blood spots” value ([2]; 9 h, individual pigs) of the same compound?
Answer: The value was 163 nM and 42 nM and 48 nM and 79 nM and 172 nM and 149 nM.

Question: What about the concentration at 9 h ([2]; LPS start, average of pigs, read-out: 950 in blood spots, Average) of the same compound?
Answer: The concentration at 9 h was 62 nM.

Question: What about the “950 in blood spots” value ([2]; LPS start, individual pigs) of the same compound?
Answer: Its value is 51 nM and 47 nM and 84 nM and 48 nM and 63 nM and 96 nM and 53 nM and 65 nM and 50 nM.

Question: What about the concentration at 6 h ([2]; pig, whole blood (blood spots), intravenous, 0.1 mg/kg/h, 6 h, average of pigs, read-out: 950 in blood spots, Average) of the same compound?
Answer: The concentration at 6 h was 90 nM.

Question: What about the concentration at 9 h ([2]; pig, whole blood (blood spots), intravenous, 0.1 mg/kg/h, 9 h, average of pigs, read-out: 950 in blood spots, Average) of the same compound?
Answer: Its concentration at 9 h is 109 nM.

Question: And the “AEPU conc, In 10uL blood” value ([2]; sample _6, individual pigs)?
Answer: The value was 64.4 ng/mL and 39.4 ng/mL and 26.3 ng/mL and 24.4 ng/mL and 20.9 ng/mL and 46.8 ng/mL and 19.5 ng/mL and 30.4 ng/mL and 48.8 ng/mL.

Question: And the “AEPU conc, In analyte” value ([2]; sample _6, individual pigs)?
Answer: The value was 12.9 ng/mL and 7.9 ng/mL and 5.3 ng/mL and 4.9 ng/mL and 4.2 ng/mL and 9.4 ng/mL and 3.9 ng/mL and 6.1 ng/mL and 9.8 ng/mL.

Question: What about the “AEPU conc, In 10uL blood” value ([2]; sample _12, individual pigs) of the same compound?
Answer: The value was 68.1 ng/mL and 58.9 ng/mL and 0.0 ng/mL and 64.5 ng/mL and 16.7 ng/mL and 19.0 ng/mL and 31.2 ng/mL.

Question: And the “AEPU conc, In analyte” value ([2]; sample _12, individual pigs)?
Answer: Its value is 13.6 ng/mL and 11.8 ng/mL and 12.9 ng/mL and 3.3 ng/mL and 3.8 ng/mL and 6.2 ng/mL.

Question: What about the “AEPU conc, In 10uL blood” value ([2]; sample _BL, individual pigs) of the same compound?
Answer: Its value is 21.0 ng/mL and 25.7 ng/mL and 19.7 ng/mL and 20.3 ng/mL and 18.6 ng/mL and 33.4 ng/mL and 19.2 ng/mL and 25.1 ng/mL and 38.0 ng/mL.

Question: And the “AEPU conc, In analyte” value ([2]; sample _BL, individual pigs)?
Answer: Its value is 4.2 ng/mL and 5.1 ng/mL and 3.9 ng/mL and 4.1 ng/mL and 3.7 ng/mL and 6.7 ng/mL and 3.8 ng/mL and 5.0 ng/mL and 7.6 ng/mL.
